The source of these data is ChEMBL document CHEMBL1201862, “PubChem BioAssay data set” (2004).

Structures are written as SMILES.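 Briefly, cells in 96-well plates were exposed to five compound concentrations for 48 h, and endpoints were estimated by linear interpolation. GI50 = concentration required for 50% inhibition of growth.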 Activity calls are given as the source filed them. Rule as the data show it: active = GI50 up to about 1.1 µM and inactive = higher. Some results are limits rather than exact numbers.

Test systems include 786-0; ACHN; CAKI-1; HCT-15; HL-60; K562; KM12; LOX IMVI; M14; MDA-MB-435; MOLT-4; Malme-3M; NCI-H460; OVCAR-3; OVCAR-4; PC-3; RPMI-8226; SK-MEL-2; NCI-H226; A498.
Common to all, as to assay: NCI anticancer screen, dose series, 48 h

For the molecule `OCc1cn(Cc2ccccc2)c2ccccc12`, the GI50 in the test on 786-0 was 10.7 µM (inactive); with ACHN, 28.1 µM (inactive); in the test with CAKI-1, < 0.0461 µM (active); in the test on HCT-15, 10.8 µM; in the test on HL-60, 5.9 µM (inactive); in the test with K562 it was 4.48 µM (inactive). Moreover, the GI50 is > 48 µM (inactive) in the test on KM12; 19.5 µM (inactive) in the test on LOX IMVI; > 32.6 µM (inactive) in the test with M14; > 51.9 µM (inactive) with MDA-MB-435; > 47.3 µM (inactive) in the test on MOLT-4; 5.46 µM (inactive) in the test on Malme-3M. The GI50 was 0.135 µM (active) with NCI-H460; 0.232 µM (active) in the test on OVCAR-3; 0.0378 µM (active) in the test with OVCAR-4; 30.1 µM (inactive) in the test on PC-3; 2.16 µM (inactive) in the test on RPMI-8226; 2.56 µM (inactive) in the test with SK-MEL-2.
With `C=C1C[C@@H](O)[C@@H](Br)C(C)(C)[C@@]12C=CC(O)(CBr)CC2` (stereo partly specified), the GI50 was > 100 µM (inactive) in the test with 786-0; > 100 µM (inactive) in the test on ACHN; > 100 µM (inactive) in the test on CAKI-1; over 100 µM with HCT-15; 35.4 µM (inactive) with HL-60; 55.8 µM (inactive) with K562. Further, the GI50 in the test on KM12 is 1.6 µM (inactive); in the test with LOX IMVI, 36.1 µM (inactive); in the test with M14 it was > 100 µM (inactive); in the test on MDA-MB-435, 66.5 µM (inactive); with MOLT-4, 21.4 µM (inactive); with Malme-3M it was > 100 µM (inactive). In addition, the GI50 in the test with NCI-H226 was > 100 µM (inactive); with NCI-H460, 66.4 µM (inactive); in the test on OVCAR-3, > 100 µM (inactive); in the test on OVCAR-4, > 100 µM (inactive); with PC-3, 1.48 µM (inactive); with RPMI-8226 it was 24.9 µM (inactive). Also, the GI50 in the test with SK-MEL-2 is 86.3 µM (inactive).
For `CCn1c(=O)c2nc(SC)sc2n(-c2ccccc2)c1=S`, the GI50 in the test on 786-0 is > 100 µM (inactive); in the test with ACHN, 43.9 µM (inactive); with HCT-15 it was 79.4 µM; with HL-60, 3.08 µM (inactive); in the test with K562, 11.3 µM (inactive); in the test with KM12 it was 49.9 µM (inactive). The GI50 was 42.5 µM (inactive) in the test on LOX IMVI; 65.3 µM (inactive) in the test on M14; 46.7 µM (inactive) with MDA-MB-435; 31.6 µM (inactive) with MOLT-4; > 100 µM (inactive) with Malme-3M; 41 µM (inactive) in the test on NCI-H226. In addition, the GI50 in the test on NCI-H460 was 37.8 µM (inactive); with OVCAR-3 it was 68.5 µM (inactive); in the test on OVCAR-4 it was > 100 µM (inactive); with PC-3, 30.7 µM (inactive); in the test with RPMI-8226 it was 74.6 µM (inactive); in the test with SK-MEL-2, 28.6 µM (inactive).
On to `C=CCOC(=O)CC[C@H](NC(=O)[C@@H](CCC(F)(F)F)Cc1ccc(O)cc1)C(=O)OCC=C`, for which the GI50 in the test on 786-0 is 86.9 µM (inactive); with ACHN it was 47.9 µM (inactive); with CAKI-1, > 100 µM (inactive); in the test on HCT-15 it was over 100 µM; in the test with HL-60 it was 85.9 µM (inactive); with K562 it was 41.5 µM (inactive). The GI50 in the test with KM12 was > 100 µM (inactive); with LOX IMVI it was 55.2 µM (inactive); with M14 it was 21.3 µM (inactive); in the test with MDA-MB-435, 25.4 µM (inactive); with MOLT-4, 27.7 µM (inactive); with Malme-3M, 20.2 µM (inactive). Also, the GI50 in the test on NCI-H226 was > 100 µM (inactive); with OVCAR-4, 65.2 µM (inactive); in the test on RPMI-8226, 30.4 µM (inactive).
As for `CC(C)CC1CC2C(=O)N(c3ccccc3)C(=O)C2c2[nH]c3ccccc3c21` (stereo unspecified), the GI50 in the test on 786-0 was 66.5 µM (inactive); with A498, > 36.3 µM (inactive); in the test with ACHN, 38 µM (inactive); with CAKI-1, 18.7 µM (inactive); in the test on HCT-15, 17.3 µM; in the test on HL-60 it was 15.3 µM (inactive). Also, the GI50 is 6.1 µM (inactive) in the test on K562; 52.7 µM (inactive) in the test with KM12; 16.8 µM (inactive) in the test with LOX IMVI; 28.2 µM (inactive) in the test with M14; 17.9 µM (inactive) with MOLT-4; 9.73 µM (inactive) in the test with Malme-3M. Further, the GI50 with NCI-H226 is 24.5 µM (inactive); with NCI-H460 it was 29.2 µM (inactive); in the test with OVCAR-3, 13.1 µM (inactive); with OVCAR-4, 8.3 µM (inactive); with RPMI-8226, 29.2 µM (inactive); with SK-MEL-2 it was 25.6 µM (inactive).
Take `Cc1cc(=O)oc2c3c(ccc12)OC(c1ccc(Br)cc1)CC3=O` (stereo unspecified): the GI50 is 5.48 µM (inactive) in the test on 786-0; 11.7 µM (inactive) with ACHN; 12.4 µM (inactive) in the test with CAKI-1; 7.48 µM in the test on HCT-15; 2.83 µM (inactive) in the test with K562; 13.9 µM (inactive) in the test with KM12. In addition, the GI50 with LOX IMVI was 2.98 µM (inactive); in the test with M14 it was 10.4 µM (inactive); in the test with MDA-MB-435, 4.69 µM (inactive); with MOLT-4, 1.79 µM (inactive); in the test with Malme-3M, 6.43 µM (inactive); in the test with NCI-H226 it was 18 µM (inactive). The GI50 in the test on NCI-H460 was 15 µM (inactive); in the test with OVCAR-3, 10.8 µM (inactive); with OVCAR-4, 26.5 µM (inactive); in the test on PC-3, 6.25 µM (inactive); in the test on RPMI-8226, 4.04 µM (inactive); in the test on SK-MEL-2, 11.3 µM (inactive).
Take `COc1ccc(-c2nc3ncccn3c2-c2ccc(SC)cc2)cc1`: the GI50 in the test on 786-0 was 4.59 µM (inactive); in the test with ACHN it was 7.57 µM (inactive); in the test with CAKI-1, 0.74 µM (active); with HCT-15, 1.51 µM; in the test with HL-60 it was 1.73 µM (inactive); in the test on K562 it was 0.869 µM (active). For the same molecule, the GI50 is 0.453 µM (active) in the test on KM12; 2.14 µM (inactive) in the test with LOX IMVI; 1.48 µM (inactive) in the test with M14; 0.213 µM (active) with MDA-MB-435; 3.7 µM (inactive) in the test on MOLT-4; 2.18 µM (inactive) in the test with NCI-H460. The GI50 in the test on OVCAR-3 is 0.44 µM (active); with OVCAR-4, 8.69 µM (inactive); in the test with PC-3, 3.13 µM (inactive); in the test on RPMI-8226 it was 2.48 µM (inactive); in the test on SK-MEL-2 it was 1.32 µM (inactive).
As for `COc1cc(/C=C2\N=C(c3ccccc3)N(c3cc4cc(Sc5ccccc5)ccc4[nH]3)C2=O)ccc1O`, the GI50 in the test on 786-0 is 9.59 µM (inactive); in the test with A498, 0.102 µM (active); in the test with ACHN it was 7.46 µM (inactive); in the test on CAKI-1, 11.1 µM (inactive); in the test on HCT-15 it was 2.86 µM; with HL-60, 1.39 µM (inactive). Besides, the GI50 was 1.97 µM (inactive) with K562; > 50 µM (inactive) with KM12; 29.9 µM (inactive) in the test on LOX IMVI; 3.65 µM (inactive) in the test on M14; 1.46 µM (inactive) with MDA-MB-435; 2.49 µM (inactive) with MOLT-4. The GI50 is 1.43 µM (inactive) in the test with Malme-3M, > 50 µM (inactive) in the test with NCI-H226, 2.36 µM (inactive) with NCI-H460 and 35 µM (inactive) with OVCAR-4.
`O=C1CS(=O)(=O)C(c2cccc(Oc3ccccc3)c2)N1c1ccc(Cl)cc1` (stereo unspecified): the GI50 with 786-0 is 16.5 µM (inactive); in the test with ACHN, 19 µM (inactive); with CAKI-1, 15.6 µM (inactive); in the test with HCT-15 it was 20.2 µM; with HL-60 it was 24.2 µM (inactive); with K562 it was 14.5 µM (inactive). In addition, the GI50 in the test with KM12 was 14.8 µM (inactive); with LOX IMVI, 14.4 µM (inactive); with M14, 18.5 µM (inactive); with MDA-MB-435, 17.1 µM (inactive); with MOLT-4, 20.9 µM (inactive); in the test on Malme-3M it was 25.4 µM (inactive). In addition, the GI50 was 21.9 µM (inactive) in the test on NCI-H226; 15 µM (inactive) in the test with NCI-H460; 24.2 µM (inactive) in the test on OVCAR-3; 22.8 µM (inactive) with OVCAR-4; 17.9 µM (inactive) with PC-3; 15.2 µM (inactive) in the test with SK-MEL-2.
As for `NNC(=O)c1c(-c2cccnc2)cnc2ccccc12`, the GI50 in the test with 786-0 is > 100 µM (inactive); with ACHN it was > 100 µM (inactive); with CAKI-1, > 100 µM (inactive); with HCT-15, over 100 µM; with HL-60, > 100 µM (inactive); in the test on K562, > 100 µM (inactive). The GI50 in the test with KM12, with M14, in the test on MOLT-4, in the test on Malme-3M, in the test on NCI-H226 and in the test with NCI-H460 was > 100 µM (inactive) throughout. Besides, the GI50 in the test with OVCAR-3, with OVCAR-4, with PC-3, with RPMI-8226 and in the test on SK-MEL-2 was > 100 µM (inactive) each time.
For `COc1ccc(C2=C(OC(C)=O)c3cccn3-c3ccc(Cl)cc3S2)cc1`, the GI50 in the test with 786-0 is 3.85 µM (inactive); with CAKI-1 it was 7.19 µM (inactive); in the test on HCT-15, 3.62 µM; in the test with HL-60, 1.59 µM (inactive); in the test with K562, 2.4 µM (inactive); in the test on KM12, 3.63 µM (inactive). Besides, the GI50 in the test on LOX IMVI is 5.37 µM (inactive); in the test with M14, 5.07 µM (inactive); with MDA-MB-435, 2.22 µM (inactive); with MOLT-4 it was 2.34 µM (inactive); in the test on Malme-3M it was 6.58 µM (inactive); in the test on OVCAR-4, 6.22 µM (inactive). For the same molecule, the GI50 in the test with PC-3 was 4.69 µM (inactive); with RPMI-8226, 2.37 µM (inactive).
Take `CC/C(=C(\c1ccccc1)c1ccc(OCC[N+](C)(C)C)cc1)c1ccccc1` [TAMOXIFEN METHYL IODIDE]: the GI50 in the test with 786-0 is 13.7 µM (inactive); with A498, 19 µM (inactive); in the test with ACHN, 17.5 µM (inactive); with CAKI-1, 17.5 µM (inactive); in the test on HCT-15 it was 17.7 µM; in the test with HL-60, 2.52 µM (inactive). In addition, the GI50 was 5.65 µM (inactive) in the test on K562; 13.3 µM (inactive) with KM12; 11.3 µM (inactive) with LOX IMVI; 14.7 µM (inactive) in the test on M14; 17.7 µM (inactive) in the test on MOLT-4; 12.8 µM (inactive) with Malme-3M. Also, the GI50 is 10.2 µM (inactive) in the test with NCI-H226; 17.1 µM (inactive) in the test on NCI-H460; 4.76 µM (inactive) in the test on OVCAR-3; 13 µM (inactive) with OVCAR-4; 9.29 µM (inactive) in the test with RPMI-8226; 13.8 µM (inactive) with SK-MEL-2.
